From patent EP2829536A1, “4-Nitro-5-dichloromethylpyrazol derivatives for the treatment of infectious diseases” (priority 2013, dated 2015)
Entries after “also recorded” stand apart in the source; their conditions may differ. Read-outs that look alike come from different tables or passages of the source.

Assays:
[1] = in vivo; conditions: female, C57/BL6, mouse; for bioavailability: F (bioavailability)
Description: (§1) Mice were weighed and checked according to the protocols and observation data sheets that were requested. Animals were followed for weight loss, apparent good health (bristled hair and wounded skin) and behaviour (signs of aggressiveness or isolation). Animals: Young adult (6-8 weeks old) female C57/BL6 mice, 20 mice for acute oral toxicity testing and 81 mice for PK experiment were used. The animals were nulliparous and non-pregnant weighing 20 ±1.5 g each. They were maintained in their cages provided with a standard laboratory rodent diet and unlimited supply of drinking water and were allowed to acclimatize to the laboratory conditions for seven days before starting the experiments. The temperature in the experimental animal room was kept at 22°C ± 3°C and the relative humidity was 50 ± 20 %. Lighting was artificial with the sequence 12 hours light and 12 hours dark. Substance formulation for in vivo model: Doses were prepared in 5% DMSO in sterile water for oral dosing through oral gavage at a dose volume of 0.3 ml, and in 5% DMSO in PBS, pH 7.4 for IV bolus injection via tail vein at a dose volume 0.1 ml.
(§2) The animals were divided into one IV group (27 mice), 2 oral groups (24 mice each), control IV group (3 mice) and control oral group (3 mice). The IV group and one oral group were dosed with 12.5 mg/kg and the other oral group was dosed with 25 mg/kg, while the control groups received the vehicle. All blood samples were collected at 15 and 30 min and 1, 2, 4, 6, 8, and 24 h after oral dosing, and at 5, 15, and 30 min and 1, 2, 4, 6, 8, and 24 h following intravenous administration. The blood was collected from the control groups at 24 h. Mice were euthanized with isoflurane and a 0.3 mL aliquot of blood was collected via terminal bleed from three mice at each time point. Blood samples were collected in heparin as anticoagulant and plasma was harvested by centrifugation at 10,000 rpm for 2 minutes. Plasma samples were kept at -80 °C until analysis.

[2] = female, C57/BL6, mouse, in vivo; for F (bioavailability): po
Description: as §1, §2

[3] = Hepatic microsomal stability; type: in vitro ADME, mice
[4] = system: M. tuberculosis H37Rv; experiment: Minimal inhibitory concentration by resazurin microtiter assay (REMA); type: cell-based; conditions: Mycobacterium tuberculosis, 168 h, 7 days incubation, read-out: (MIC) against M. tuberculosis H37Rv
[5] = mouse, in vivo
[6] = system: L929 cell line; experiment: MTT assay, effect on proliferation (5 days); type: cell-based; conditions: Mus musculus, L929, 120 h
[7] = system: H37Rv Pasteur M. tuberculosis strain; experiment: Effectivity in mice infected with M. tuberculosis (bacillary load in lung and spleen); type: in vivo; conditions: for p (Lungs) / p (Spleen): vs sham
Description: Lx079 as well as two other components, Lx059 which is 10% DMSO in PBS buffer and Lx069 which is a combination of ethambutol (0.8 mg/ml) and myxopyronine (0.2 mg/ml), were tested for drug effectivity in mice. Two controls were included in the study (sham, non treated; and treated with Isoniazide (INH, 25 mg/kg).
The animals were infected at time point 0 with M. tuberculosis through an airborne infection apparatus (Glas-col Inc., Terre Haute, IN, USA) for infection with a low dose of H37Rv Pasteur M. tuberculosis strain. Nebulization provided an approximate uptake of 20-50 bacilli by mice lungs. The treatments and controls results were processed blindly. The experiment was run including 10 C57BL/6 mice per group. A volume of 0.2mL of each treatment was administered orally every day for 5 days, on week 2 post infection.
Mice were euthanized on week 3 with isoflurane (inhalation excess), and lung and spleen samples removed to and mechanically disrupted in order to obtain tissue homogenates to be plated cultured in Becton Dickinson 7H11 Middlebrook agar (Bennex Ltd, Shannon, Ireland) and incubated at 37 °C. Viable bacteria (Colony Forming Units, CFUs) were counted four weeks after, data being recorded as the log of the number of CFUs recovered per organ. The results of the different groups were represented graphically, compared and evaluated for statistically significant differences (non parametric comparison between each candidate and each control, Mann Whitney test), with the differences being considered significant at P≤0.05 (Graphpad software).
The effect on the bacillary load of each candidate results have been logarithmically represented as CFU/mL in the graphs attached. The lung and spleen results of each candidate and controls evaluated have been represented together (as box and whiskers, 5-95 percentiles plotted) and also per candidate with sham (results of each mouse and median and standard deviation plotted). Statistically significant differences (p<0.05) are marked with * if existing between the evaluated group and sham.

[8] = system: M. bovis BCG; type: cell-based
[9] = system: PtK2 cells; experiment: Effect on cell morphology / endoplasmic reticulum by immunocytochemistry (ICC); type: cell-based, rat kangaroo; conditions: for morphological effect / ER stress: PtK2 cells, overnight
Description: Cell lines and media: Cells were grown at 37°C and 5% CO2 in the following media supplemented with 10 % FBS(Gibco): • L-929 cells (mouse connective tissue fibroblast: Dulbecco's modified Eagle's medium (DMEM), Lonza • PtK2 cells (rat kangaroo kidney epithelial cells): Minimum Essential Medium (MEM) medium, supplemented with 1 % non-essential amino acids and 1 % glutamax, Invitrogen.
The effects of the tested compounds on cell proliferation and the acute toxic effects were assayed in vitro on L929 cell line. The metabolic activity was measured by means of (MTT, (3-(4,5-Dimethylthiazol-2-yl)-2,5-diphenyltetrazolium bromide) cell survival colorimetric assay. Effect on proliferation: 60 µl of serial dilutions of the test compounds were added to 120 µl aliquots of a cell suspension (50,000 cells/ml) in 96-well microplates then incubated 5 days at 37°C and 5% CO2. 20 µl MTT dye were added to a final concentration of 0.5 mg/ml. After 2 h the precipitate of formazan crystals was centrifuged, and the supernatant discarded. After washing with PBS, the precipitate was dissolved in 100 µl of acidified propanol. The plates were stirred for 20 minutes and the optical density of the resulting color was measured at 590 nm. Acute toxic effect: It was investigated by plating 120 µl aliquots of a cell suspension (100,000-200,000 cells/ml) in 96-well microplates. The cells were incubated at 37°C and 5% CO2 and allowed to grow for two days to stop the cell propagation. Then 60 µl of serial dilutions of the test compounds were added and incubated for further 24h. Then the MTT assay was performed as described before. Results were expressed as the percentage of cellular viability in comparison to cells that were treated only with the vehicle. The IC50 values were determined as the concentrations at which cells developed 50% of the absorbance of untreated control cells as estimated from the dose-response curves of two parallel experiments. Immunofluorescence staining: The effects of substances on the phenotypical changes of cell shape and adhesion were investigatedin the potoroo (PtK2) cells after staining of the nucleus and the endoplasmic reticulum (ER). PtK2 cells were grown on cover slips in 4-well plates. semi-confluent cells were treated with test compounds and the plates were incubated over the night. The cells were fixed with cold methanol /acetone (1:1) for 10 min. Then the cells were washed with PBS and the primary antibody (anti GRP-94, thermoscientific) was added and incubated for 45 min and washed with PBS. Secondary antibody (Alexaflour goat anti-rat 488, Invitrogen) was then added to the cells and incubated for additional 45 min. Cells were washed with PBS and Cover slips were mounted in anti-fade mounting medium with DAPI (Invitrogen). Images were taken with a CCD camera attached to a fluorescence microscope.
The effects of substances on the phenotypical changes of cell shape and adhesion were investigated by the technique of immunocytochemistry (ICC). The endoplasmic reticulum (ER) was investigated upon treatment of the potoroo cells (PtK2) cells with/without test compounds.
PtK2 cells were grown on cover slips in 4-well plates. semi-confluent cells were treated with test compounds and the plates were incubated over the night. The cells were fixed with cold methanol /acetone for 10 min. Then the cells were washed with PBS and the primary antibody (anti GRP-94, thermoscientific) was added and incubated for 45 min and washed with PBS. […]

[10] = system: L929 cell line; experiment: MTT assay, acute toxic effect (24 h); type: cell-based; conditions: Mus musculus, L929, 24 h; 1 day (acute toxic effect)
[11] = Acute oral toxicity in mice; conditions: for No. of dead mice: 5 mice, 14 days; for % Cumulative of dead mice: Reed-Muench method
[12] = system: M. bovis BCG; experiment: microbe, parasite or virus in culture; type: cell-based; conditions: Mycobacterium tuberculosis variant bovis BCG
[13] = dose group Lx079-1 (dose not given)
[14] = dose group Lx079-2 (dose not given)
[15] = dose group Lx079-3 (dose not given)
[16] = dose group Lx079-4 (dose not given)
[17] = dose group Lx079-5 (dose not given)
[18] = dose group Lx079-6 (dose not given)

CNCCOc1nn(-c2c(Cl)cc(Cl)cc2Cl)c(C(Cl)Cl)c1[N+](=O)[O-].Cl [LX079, 2-((5-(Dichloromethyl)-4-nitro-1-(2,4,6-trichlorophenyl)-1H-pyrazol-3-yl)oxy)-N-methylethanaminium chloride]
AUC ([1]; iv, 12.5 mg/kg): 530 ± 30 ng·h/mL | C0 ([1]; iv, 12.5 mg/kg): 660 ± 70 ng/mL | clearance ([1]; iv, 12.5 mg/kg): 394 mL/min/kg | half-life ([1]; iv, 12.5 mg/kg): 25.8 ± 16.2 min | AUC ([1]; po, 12.5 mg/kg): 150 ± 20 ng·h/mL | bioavailability ([1]; po, 12.5 mg/kg): 27.6 ± 2.46% | AUC ([1]; po, 25 mg/kg): 350 ± 70 ng·h/mL | bioavailability ([1]; po, 25 mg/kg): 32.7 ± 7.72% | C0 ([2]; iv, 12.5 mg/kg): 660 ± 70 ng/mL | CL ([2]; iv, 12.5 mg/kg): 394 ± 20.3 mL/min/kg | K (elimination rate constant) ([2]; iv, 12.5 mg/kg): 1.79 ± 0.44 | t1/2 ([2]; iv, 12.5 mg/kg): 25.8 min | time in which the plasma concentration was exceeding the in vitro MIC (T > MIC) ([2]; iv, 12.5 mg/kg): less than 1 hour | F (bioavailability) ([2]; 12.5 mg/kg): 27.583 ± 2.457% | F (bioavailability) ([2]; 25 mg/kg): 32.662 ± 7.715% | t1/2 (in vitro) ([3]; 1 µM, mice microsomes 0.5 mg/mL, NADPH, 37 °C): 5.937 ± 2.36 min | half-life at 1 µM ([3]; mouse, pooled liver microsomes, pH 7.4, 1 µM, mice microsomes 0.5 mg/mL, NADPH, 37 °C, read-out: t1/2 (in vitro)): 5.94 ± 2.36 min | microsomal CLint at 1 µM ([3]; mouse, pooled mouse liver microsomes, pH 7.4, mice microsomes, corrected for binding to microsomes, read-out: CLint, inc): 2820 ± 1120 µL/min/mg | CLint (hepatic intrinsic clearance) ([3]; scaled up from the in vitro t1/2, SMW: standard mouse weight): 221.81± 88.23 ml/min/SMW | MIC [4]: 0.18 µg/mL | microscopic examination of liver, spleen, lungs, and kidneys [5]: No pathological abnormalities were detected | IC50 [6]: 2.2 µg/mL | effect on the bacillary load in lungs and spleen compared to sham ([7]; C57BL/6 mice, oral, every day for 5 days on week 2 post infection): decrease the bacillary load in both in lungs and spleen; also recorded: clear positive inhibitory effect on the survival of the TB pathogen | p (Lungs) [7, 13]: 0.0032 | p (Spleen) [7, 13]: 0.0009 | p (Lungs) [7, 14]: 0.0002 | p (Spleen) [7, 14]: 0.0343 | p (Lungs) [7, 15]: 0.0010 | p (Spleen) [7, 15]: 0.0002 | p (Lungs) [7, 16]: 0.0004 | p (Spleen) [7, 16]: 0.0117 | p (Lungs) [7, 17]: 0.0002 | p (Spleen) [7, 17]: 0.0164 | p (Lungs) [7, 18]: 0.0002 | p (Spleen) [7, 18]: 0.0031 | decrease of log CFU ([8]; 2 µg/ml, 72 hours, in comparison to the untreated controls): around 2 log CFU | intracellular activity against M. bovis BCG ([8]; infected macrophage model, Fig. 1): significant intracellular activity | morphological effect / ER stress ([9]; 5µg/ml): did not produce morphological abnormalities | morphological effect / ER stress ([9]; 6.6 µg/ml): induced massive ER stress | morphological changes of the treated cells after immunofluorescence staining ([9]; concentration 25 times higher than the MIC): no morphological changes | IC50 [10]: 5.5 µg/mL | No. of dead mice ([11]; 62.5 mg/kg single oral dose): 0 | % Cumulative of dead mice ([11]; 62.5 mg/kg single oral dose): 0% | No. of dead mice ([11]; 125 mg/kg single oral dose): 2 | % Cumulative of dead mice ([11]; 125 mg/kg single oral dose): 22% | No. of dead mice ([11]; 250 mg/kg single oral dose): 1 | % Cumulative of dead mice ([11]; 250 mg/kg single oral dose): 42.85% | LD50 at 14 days ([11]; female, C57/BL6, mouse, in vivo, po): > 250 mg/kg | MIC [12]: 0.6 µg/mL

CNCCOc1nn(-c2c(Cl)cc(C(F)(F)F)cc2Cl)c(C(Cl)Cl)c1[N+](=O)[O-].Cl [Lx088, 2-((1-(2,6-Dichloro-4-(trifluoromethyl)phenyl)-5-(dichloromethyl)-4-nitro-1H-pyrazol-3-yl)oxy)-N-methylethanaminium chloride]
morphological effect / ER stress ([9]; 6.6 µg/ml): produced less ER stress | morphological effect / ER stress ([9]; 13.3 µg/ml): induced massive ER stress | MIC [12]: 0.781 µg/mL

CCNCCOc1nn(-c2c(Cl)cc(Cl)cc2Cl)c(C(Cl)Cl)c1[N+](=O)[O-].Cl [Lx089, 2-((5-(Dichloromethyl)-4-nitro-1-(2,4,6-trichlorophenyl)-1H-pyrazol-3-yl)oxy)-N-ethylethanaminium chloride]
MIC [12]: 0.781 µg/mL
